In patent publication US6939896B2, “Cd45 inhibitors” (AstraZeneca AB, priority 1999, dated 2005):

Tests used:
[1] = Cytotoxicity assay (Calcein-AM uptake); format: cell-based; conditions: human, T-cell lymphoblasts (PHA-expanded PBMC), overnight incubation, Calcein-AM viability
[2] = tested on: Peripheral blood mononuclear cells (T cells); assay: T cell proliferation assay (anti-CD3 OKT3-activated PBMC, [3H]thymidine); format: cell-based; conditions: human PBMC activated with OKT3 30 ng/mL, read-out: T cell prolif. IC50
Procedure: Whole blood was obtained from healthy human blood donors. Peripheral blood mononuclear cells (“PBMC”) were isolated using Lymphoprep density-gradient centrifugation (Nycomed Amersham, Oslo, Norway), washed, counted and resuspended at 2×10^6 cells/mL in RPMI 1640 medium containing glutamine, 0.1 mg/mL gentamycin and 10% heat inactivated human serum. PBMC were transferred to 96-well plates (2×10^5 cells/well) containing compound or vehicle control, with the final concentration of DMSO not to exceed 0.3% and incubated for 1 hour before addition of the activating anti-CD3 antibody, OKT3 (30 ng/mL). After 24 hours in culture, the cells were pulsed with [3H]thymidine (1 μCi/well) overnight and harvested the next day onto 96-well Packard GF/C filter plates using a Packard Cell Harvester (Packard Instruments, Meriden, Conn.). The filter plate was dried, the bottom of the plate sealed, 25 μL of Microscint 20 scintillation fluid added to each well, the top of the plate sealed with TopSeal-A, and the plate counted on a Packard TopCount. The data from the TopCount is transferred into Excel 5 (Microsoft, Redmond, Wash.) and formatted for EC50 determination using Prism software (GraphPad Software, San Diego, Calif.).

[3] = biological target: T1, CD45 (Homo sapiens, UniProt P08575); assay: Phosphatase assay using pNPP as substrate; format: biochemical; conditions: pH 7.0
T1 construct: incubating the cytosolic portion of CD45 with the compounds and p-nitrophenyl phosphate (pNPP); purchased BIOMOL (Plymouth Meeting, Pa.)
T1 sequence (P08575 599-1306 limits assumed): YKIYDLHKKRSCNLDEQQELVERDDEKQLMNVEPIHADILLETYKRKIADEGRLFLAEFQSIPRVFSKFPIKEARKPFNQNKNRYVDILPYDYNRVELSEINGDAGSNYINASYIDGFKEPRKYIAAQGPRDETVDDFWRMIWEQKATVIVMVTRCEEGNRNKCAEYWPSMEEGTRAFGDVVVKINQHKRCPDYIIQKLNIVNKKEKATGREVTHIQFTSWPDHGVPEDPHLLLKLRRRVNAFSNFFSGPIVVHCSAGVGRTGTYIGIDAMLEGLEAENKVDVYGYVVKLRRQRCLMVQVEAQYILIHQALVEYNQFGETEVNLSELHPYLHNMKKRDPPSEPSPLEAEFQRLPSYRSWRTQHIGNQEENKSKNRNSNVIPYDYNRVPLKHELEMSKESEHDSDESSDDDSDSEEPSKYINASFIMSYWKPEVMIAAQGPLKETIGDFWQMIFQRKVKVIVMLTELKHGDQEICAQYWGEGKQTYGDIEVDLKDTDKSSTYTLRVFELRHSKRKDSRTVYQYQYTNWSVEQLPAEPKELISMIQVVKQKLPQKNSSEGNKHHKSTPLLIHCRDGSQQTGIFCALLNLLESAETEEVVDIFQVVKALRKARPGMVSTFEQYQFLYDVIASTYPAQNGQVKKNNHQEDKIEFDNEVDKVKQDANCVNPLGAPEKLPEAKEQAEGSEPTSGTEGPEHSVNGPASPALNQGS
Procedure: (§1) Potent inhibitors of CD45 have been discovered. Such inhibitors are useful for the treatment of various autoimmune disorders as well as for treatment of OGR. Inhibition of the phosphatase activity of CD45 by compounds of the present invention has been shown by incubating the cytosolic portion of CD45 with the compounds and p-nitrophenyl phosphate (pNPP), a phosphatase substrate. Spectrophotometric monitoring has shown that the liberation of p-nitrophenol from the substrate by CD45 is inhibited in the presence of the compounds disclosed herein. Inhibition of the phosphatase activity of CD45 by compounds of the present invention has also been shown using a p56^lck carboxy-terminal phosphorylated peptide as a substrate.
CD45 enzyme was obtained from BIOMOL (Plymouth Meeting, Pa.). Phosphatase activity was assayed in a buffer containing final concentrations of 25 mM imidazole at pH 7.0, 50 mM NaCl, 2.5 mM ethylenediaminetetraacetic acid (“EDTA”), 5 mM dithiothreitol (“DTT”) and 10 μg/mL bovine serum albumin (“BSA”) using pNPP as a substrate.
Activity was measured by following the increase in absorbance at 405 nm using a SpectraMax Plus spectrophotometric plate reader (Molecular Devices, Sunnyvale, Calif.).

[4] = biological target: T1, CD45; assay: Phosphatase assay using lck 10-mer as substrate; format: biochemical; conditions: lck carboxy-terminal peptide TEGQpYQPQP substrate, pH 7.2, 5% DMSO, read-out: Ick IC50
Procedure: as §1
Phosphatase activity was assayed in 96 well plates in a buffer containing final concentrations of 25 mM HEPES at pH 7.2, 5 mM DTT and 10 μg/mL BSA, using the lck carboxy-terminal peptide TEGQpYQPQP as the substrate (Cho, H., Krishnaraj. R., Itoh. M., Kitas, E., Bannwarth, W., Saito, H., Walsh, C. T. 1993. Substrate specificities of catalytic fragments of protein tyrosine phosphatases (HPTPb, LAR. and CD45) toward the phosphotyrosylpeptide substrates and thiophosphotyrosylated peptides as inhibitors. Protein Science 2:977-984). Compounds were tested in a range from 30 to 0.01 μM in a final concentration of 5% DMSO. Enzyme was incubated with substrate. with or without compound, at room temperature for 1.5 h. At the end of the incubation period, BIOMOL “Green Reagent” (BIOMOL, Plymouth Meeting, Pa.) was added to each well, the plates incubated at room temperature for 30 min and absorbance read at 620 nm.

Row | Compound | IC50 [3] | IC50 [4] | CC50 [1] | IC50 [2]
1 | O=C1C=Cc2ccc(O)cc2C1=O [Example 18, 7-Hydroxy-[1,2]naphthoquinone] | 4.9 µM |  | > 30 µM | > 30 µM
2 | O=C1C=C(c2c(-c3ccccc3)[nH]c3ccccc23)c2ccccc2C1=O [Example 8, 4-(2-Phenyl-1H-indol-3-yl)-[1,2]naphthoquinone] | 2.9 µM | 20 µM | 16 µM | 2 µM
3 | O=C1C=C(c2cccc3ccccc23)c2ccccc2C1=O [Example 12, [1,1′]Binaphthalenyl-3,4-dione] | 22.5 µM | > 30 µM | > 30 µM | 3.2 µM
4 | O=C1C=C(c2cccc([N+](=O)[O-])c2)c2ccccc2C1=O [Example 14, 4-(3-Nitro-phenyl)-[1,2]naphthoquinone] | 7.9 µM | > 30 µM | 4 µM | 0.2 µM
5 | O=C1C=Cc2cc(C(=O)c3ccccc3)ccc2C1=O [Example 15, 6-Benzoyl-[1,2]naphthoquinone] | 22 µM | > 30 µM | > 30 µM | 11 µM
6 | COC(=O)c1ccc2c(c1)C=CC(=O)C2=O [Example 17, 5,6-Dioxo-5,6-dihydro-naphthalene-2-Carboxylic acid methyl ester] | 7 µM | > 30 µM | > 30 µM | 7 µM
7 | Cn1cc(C2=CC(=O)C(=O)c3ccccc32)c2ccccc21 [Example 7, 4-(1-Methyl-1H-indol-3-yl)-[1,2]naphthoquinone] | 5 µM | 19 µM | > 30 µM | 1.5 µM
8 | O=C1C=Cc2ccccc2C1=O [Example 1, [1,2]-Naphthoquinone] | 3 µM | > 30 µM | > 30 µM | 7 µM
9 | O=C1C=C(c2ccc(Br)cc2)c2ccccc2C1=O [Example 10, 4-(4-Bromo-phenyl)-[1,2]naphthoquinone] | 7.7 µM | > 30 µM | 3 µM | 0.11 µM
10 | COC(=O)c1cccc2c1C=CC(=O)C2=O [Example 16, 5,6-Dioxo-5,6-dihydro-naphthalene-1-Carboxylic acid methyl ester] | 11 µM | > 30 µM | > 30 µM | 
11 | O=C1C=C(c2cc(Cl)cc(Cl)c2)c2ccccc2C1=O [Example 13, 4-(3,5-Dichloro-phenyl)-[1,2]naphthoquinone] | 5.5 µM |  | 5.5 µM | 0.3 µM

Continued, in another order:

Row | IC50 [3] | IC50 [4] | Compound | CC50 [1] | IC50 [2]
12 | 8 µM | > 30 µM | O=C1C=C(c2ccccc2Cl)c2ccccc2C1=O [Example 9, 4-(2-Chloro-phenyl)-[1,2]naphthoquinone] | 124 µM | 0.3 µM
13 | 5 µM | > 30 µM | O=C1C=C(c2ccccc2)c2ccccc2C1=O [Example 11, 4-Phenyl-[1,2]naphthoquinone] | 12 µM | 0.15 µM
14 | 10 µM | > 30 µM | O=C1C=C(Cl)c2ccccc2C1=O [Example 5, 4-Chloro-[1,2]naphthoquinone] | > 30 µM | > 30 µM
15 | 1.2 µM | 4.2 µM | COC1=CC(=O)C(=O)c2ccccc21 [Example 3, 4-Methoxy-[1,2]naphthoquinone] |  | > 30 µM
16 | 2 µM |  | CCOC1=CC(=O)C(=O)c2ccccc21 [Example 2, 4-Ethoxy-[1,2]naphthoquinone] | 30 µM | > 30 µM
17 | 1.2 µM | 4.9 µM | C=CCOC1=CC(=O)C(=O)c2ccccc21 [Example 4, 4-Allyloxy-[1,2]naphthoquinone] | > 30 µM | > 30 µM
18 | 8.7 µM | > 30 µM | O=C1C=C(Br)c2ccccc2C1=O [Example 6, 4-Bromo-[1,2]naphthoquinone] | > 30 µM | 22 µM
